Results as given in PMC6129194 (Bioorganic & medicinal chemistry, 2018).

Assays:
[1] = cited from earlier work
[2] = cited from earlier work; remark: listed apart in the source
MDCK-mdr1 cells = assay: MDCK-mdr1 monolayer permeability assay; conditions: % transported apical to basal; 10 μM, 1 h, 37 °C, pH 7.4

Row | Compound | human liver microsome stability [1] | solubility in acidic media [2] | MDCK-mdr1 A to B (MDCK-mdr1 cells) [%]
1 | CN1CCN(c2ncnc3c2nc(-c2ccccc2Cl)n3-c2ccc(Cl)cc2)CC1 [compound 5] | good | good | –
2 | CC(C)CS(=O)(=O)N1CCN(c2ncnc3c2nc(-c2ccccc2Cl)n3-c2ccc(Cl)cc2)CC1 [compound 15, 8-(2-Chlorophenyl)-9-(4-chlorophenyl)-6-{4-[(2-methylpropyl)sulfonyl]piperazin-1-yl}-9H-purine] | – | – | < 1
3 | O=C(OCC1CCC1)N1CCN(c2ncnc3c2nc(-c2ccccc2Cl)n3-c2ccc(Cl)cc2)CC1 [compound 26, Cyclobutylmethyl 4-[8-(2-Chlorophenyl)-9-(4-chlorophenyl)-9H-purin-6-yl]piperazine-1-carboxylate] | – | – | < 1
4 | N=C(Nc1ccc(F)cc1)N1CCN(c2ncnc3c2nc(-c2ccccc2Cl)n3-c2ccc(Cl)cc2)CC1 [compound 28, 4-[8-(2-Chlorophenyl)-9-(4-chlorophenyl)-9H-purin-6-yl]-N-(4-fluorophenyl)piperazine-1-carboximidamide] | – | – | < 1
